{"source": "patent US20240174618A1", "about": "“SUBSTITUTED (2-HETEROARYLOXYPHENYL)SULFONATES, SALTS THEREOF AND THEIR USE AS HERBICIDAL AGENTS” (Bayer Aktiengesellschaft, priority 2021, published 2024)", "format_in_all_cases": "in vivo", "key": {"Viola tricolor (VIOTR) [1]": {"system": "Viola tricolor (VIOTR)", "test": "C. Herbicidal pre-emergence efficacy, VIOTR", "description": "(§1) Seeds of monocotyledonous and dicotyledonous weed plants and crop plants were placed in plastic or organic planting pots and covered with soil. The compounds of the invention, formulated in the form of wettable powders (WP) or as emulsion concentrates (EC), were then applied to the surface of the covering soil as aqueous suspension or emulsion with addition of 0.5% additive at a water application rate equivalent to 600 l/ha (converted). After the treatment, the pots were placed in a greenhouse and kept under good growth conditions for the test plants. After about 3 weeks, the efficacy of the preparations was scored visually in comparison with untreated controls as percentages. For example, • 100% efficacy=plants have died, • 0% efficacy=like untreated control plants.\n(§2) Tables C1a to C14b below show the effects of selected compounds of the general formula (I) according to table 1 on various harmful plants at an application rate corresponding to 320 g/ha or less, which were obtained by the experimental procedure mentioned above."}, "Veronica persica (VERPE) [2]": {"system": "Veronica persica (VERPE)", "test": "C. Herbicidal pre-emergence efficacy, VERPE", "conditions": "320 g/ha, scored after about 3 weeks", "description": "as §1, §2"}, "[3]": {"system": "Echinochloa crus-galli (ECHCG)", "test": "E. Herbicidal post-emergence efficacy, ECHCG", "conditions": "application rate 320 g/ha", "protocol": "(§3) Seeds of monocotyledonous and dicotyledonous weeds and crop plants were placed in sandy loam in plastic or organic planting pots, covered with soil and cultivated in a greenhouse under controlled growth conditions. 2 to 3 weeks after sowing, the test plants were treated at the one-leaf stage. The compounds of the invention, formulated in the form of wettable powders (WP) or as emulsion concentrates (EC), were then sprayed onto the green parts of the plants as aqueous suspension or emulsion with addition of 0.5% additive at a water application rate of 600 l/ha (converted). After the test plants had been kept in the greenhouse under optimum growth conditions for about 3 weeks, the activity of the preparations was rated visually in comparison to untreated controls.\n(§4) For example, • 100% efficacy=plants have died, • 0% action=like untreated control plants.\n(§5) Tables E1a to E12b below show the effects of selected compounds of the general formula (I) according to table 1 on various harmful plants at an application rate corresponding to 320 g/ha or less, which were obtained by the experimental procedure mentioned above."}, "Kochia scoparia (KCHSC) [4]": {"system": "Kochia scoparia (KCHSC)", "test": "E. Herbicidal post-emergence efficacy, KCHSC", "conditions": "application rate 320 g/ha", "protocol": "as §3, §4, §5"}, "[5]": {"system": "Echinochloa crus-galli (ECHCG)", "test": "C. Herbicidal pre-emergence efficacy, ECHCG", "conditions": "320 g/ha, scored after about 3 weeks", "description": "as §1, §2"}, "[6]": {"system": "Amaranthus retroflexus (AMARE)", "test": "C. Herbicidal pre-emergence efficacy, AMARE", "conditions": "scored after about 3 weeks", "description": "as §1, §2"}, "[7]": {"system": "Triticum aestivum (TRZAS)", "test": "F. Post-emergence effect on useful plants, TRZAS", "conditions": "useful plant", "protocol": "as §3, §4\n(§6) Tables F1a to F4 below show the effects of selected compounds of the general formula (I) according to table 1 on various useful plants at an application rate corresponding to 320 g/ha or less, which were obtained by the experimental procedure mentioned above."}, "[8]": {"system": "Abutilon theophrasti (ABUTH)", "test": "E. Herbicidal post-emergence efficacy, ABUTH", "conditions": "application rate 320 g/ha", "protocol": "as §3, §4, §5"}, "Lolium rigidum (LOLRI)": {"system": "Lolium rigidum (LOLRI)", "test": "C. Herbicidal pre-emergence efficacy, LOLRI", "conditions": "320 g/ha, scored after about 3 weeks", "description": "as §1, §2"}, "[9]": {"system": "Digitaria sanguinalis (DIGSA)", "test": "C. Herbicidal pre-emergence efficacy, DIGSA", "conditions": "scored after about 3 weeks", "description": "as §1, §2"}, "[10]": {"system": "Pharbitis purpurea (PHBPU)", "test": "E. Herbicidal post-emergence efficacy, PHBPU", "conditions": "application rate 320 g/ha", "protocol": "as §3, §4, §5"}, "Zea mays (ZEAMX) [11]": {"system": "Zea mays (ZEAMX)", "test": "F. Post-emergence effect on useful plants, ZEAMX", "conditions": "useful plant", "protocol": "as §3, §4, §6"}, "Veronica persica (VERPE) [12]": {"system": "Veronica persica (VERPE)", "test": "E. Herbicidal post-emergence efficacy, VERPE", "protocol": "as §3, §4, §5"}, "[13]": {"system": "Amaranthus retroflexus (AMARE)", "test": "E. Herbicidal post-emergence efficacy, AMARE", "protocol": "as §3, §4, §5"}, "Setaria viridis (SETVI)": {"system": "Setaria viridis (SETVI)", "test": "C. Herbicidal pre-emergence efficacy, SETVI", "conditions": "320 g/ha, scored after about 3 weeks", "description": "as §1, §2"}, "Kochia scoparia (KCHSC) [14]": {"system": "Kochia scoparia (KCHSC)", "test": "C. Herbicidal pre-emergence efficacy, KCHSC", "conditions": "application rate 320 g/ha", "description": "as §1, §2"}, "Zea mays (ZEAMX) [15]": {"system": "Zea mays (ZEAMX)", "test": "D. Pre-emergence effect on useful plants, ZEAMX", "conditions": "useful plant", "description": "as §1\nTables D1a to D5b below show the effects of selected compounds of the general formula (I) according to table 1 on various useful plants at an application rate corresponding to 320 g/ha or less, which were obtained by the experimental procedure mentioned above."}, "Viola tricolor (VIOTR) [16]": {"system": "Viola tricolor (VIOTR)", "test": "E. Herbicidal post-emergence efficacy, VIOTR", "conditions": "application rate 320 g/ha", "protocol": "as §3, §4, §5"}}}
{"smiles": "Cc1cccc(Oc2ncc(Cl)cn2)c1OS(=O)(=O)CC=C(Cl)Cl", "note": "[Example I-83]", "values": [{"measurement": "Pre-emergence efficacy against VIOTR in %", "setting": "Viola tricolor (VIOTR) [1]; application rate 80 g/ha", "value": 90, "unit": "%"}, {"measurement": "Pre-emergence efficacy against VIOTR in %", "setting": "Viola tricolor (VIOTR) [1]; application rate 320 g/ha", "value": 100, "unit": "%"}, {"measurement": "Pre-emergence efficacy against VERPE", "setting": "Veronica persica (VERPE) [2]", "value": 90, "unit": "%"}, {"measurement": "Post-emergence efficacy against ECHCG in %", "setting": "[3]", "value": 80, "unit": "%"}, {"measurement": "Post-emergence efficacy against KCHSC in %", "setting": "Kochia scoparia (KCHSC) [4]", "value": 80, "unit": "%"}, {"measurement": "Pre-emergence efficacy against ECHCG", "setting": "[5]", "value": 90, "unit": "%"}, {"measurement": "Pre-emergence efficacy against AMARE", "setting": "[6]; 80 g/ha", "value": 80, "unit": "%"}, {"measurement": "Pre-emergence efficacy against AMARE", "setting": "[6]; 320 g/ha", "value": 100, "unit": "%"}, {"measurement": "Post-emergence efficacy against TRZAS in %", "setting": "[7]; application rate 80 g/ha", "value": 0, "unit": "%"}, {"measurement": "Post-emergence efficacy against TRZAS in %", "setting": "[7]; application rate 320 g/ha", "value": 20, "unit": "%"}, {"measurement": "Post-emergence efficacy against ABUTH in %", "setting": "[8]", "value": 80, "unit": "%"}, {"measurement": "Pre-emergence efficacy against LOLRI", "setting": "Lolium rigidum (LOLRI)", "value": 80, "unit": "%"}, {"measurement": "Pre-emergence efficacy against DIGSA", "setting": "[9]; 80 g/ha", "value": 80, "unit": "%"}, {"measurement": "Pre-emergence efficacy against DIGSA", "setting": "[9]; 320 g/ha", "value": 100, "unit": "%"}, {"measurement": "Post-emergence efficacy against PHBPU in %", "setting": "[10]", "value": 100, "unit": "%"}, {"measurement": "Post-emergence efficacy against ZEAMX in %", "setting": "Zea mays (ZEAMX) [11]; application rate 80 g/ha", "value": 10, "unit": "%"}, {"measurement": "Post-emergence efficacy against ZEAMX in %", "setting": "Zea mays (ZEAMX) [11]; application rate 320 g/ha", "value": 20, "unit": "%"}, {"measurement": "Post-emergence efficacy against VERPE in %", "setting": "Veronica persica (VERPE) [12]; application rate 80 g/ha", "value": 80, "unit": "%"}, {"measurement": "Post-emergence efficacy against VERPE in %", "setting": "Veronica persica (VERPE) [12]; application rate 320 g/ha", "value": 100, "unit": "%"}, {"measurement": "Post-emergence efficacy against AMARE in %", "setting": "[13]; application rate 80 g/ha", "value": 90, "unit": "%"}, {"measurement": "Post-emergence efficacy against AMARE in %", "setting": "[13]; application rate 320 g/ha", "value": 100, "unit": "%"}, {"measurement": "Pre-emergence efficacy against SETVI", "setting": "Setaria viridis (SETVI)", "value": 100, "unit": "%"}, {"measurement": "Pre-emergence efficacy against KCHSC in %", "setting": "Kochia scoparia (KCHSC) [14]", "value": 80, "unit": "%"}, {"measurement": "Pre-emergence efficacy against ZEAMX in %", "setting": "Zea mays (ZEAMX) [15]; application rate 80 g/ha", "value": 0, "unit": "%"}, {"measurement": "Pre-emergence efficacy against ZEAMX in %", "setting": "Zea mays (ZEAMX) [15]; application rate 320 g/ha", "value": 0, "unit": "%"}, {"measurement": "Post-emergence efficacy against VIOTR in %", "setting": "Viola tricolor (VIOTR) [16]", "value": 100, "unit": "%"}]}
